According to ChEMBL document CHEMBL5465560, “Selectivity Literature for EUbOPEN Chemogenomic Library” (2024):
One block for each molecule: values may come before it.

Assays:
[1] = molecular target: Cyclin-dependent kinase 3 (Homo sapiens) (UniProt Q00526); test: Selectivity interaction (KinomeScan (DiscoverX)) EUB0000666a CDK3; details: at 10 µM
[2] = molecular target: T1, Serine/threonine-protein kinase TAO2 (Homo sapiens) (UniProt Q9UL54); test: Selectivity interaction (Kinase panel (literature)) EUB0001199aCl TAOK2; details: at 1 µM
T1 sequence (whole entry): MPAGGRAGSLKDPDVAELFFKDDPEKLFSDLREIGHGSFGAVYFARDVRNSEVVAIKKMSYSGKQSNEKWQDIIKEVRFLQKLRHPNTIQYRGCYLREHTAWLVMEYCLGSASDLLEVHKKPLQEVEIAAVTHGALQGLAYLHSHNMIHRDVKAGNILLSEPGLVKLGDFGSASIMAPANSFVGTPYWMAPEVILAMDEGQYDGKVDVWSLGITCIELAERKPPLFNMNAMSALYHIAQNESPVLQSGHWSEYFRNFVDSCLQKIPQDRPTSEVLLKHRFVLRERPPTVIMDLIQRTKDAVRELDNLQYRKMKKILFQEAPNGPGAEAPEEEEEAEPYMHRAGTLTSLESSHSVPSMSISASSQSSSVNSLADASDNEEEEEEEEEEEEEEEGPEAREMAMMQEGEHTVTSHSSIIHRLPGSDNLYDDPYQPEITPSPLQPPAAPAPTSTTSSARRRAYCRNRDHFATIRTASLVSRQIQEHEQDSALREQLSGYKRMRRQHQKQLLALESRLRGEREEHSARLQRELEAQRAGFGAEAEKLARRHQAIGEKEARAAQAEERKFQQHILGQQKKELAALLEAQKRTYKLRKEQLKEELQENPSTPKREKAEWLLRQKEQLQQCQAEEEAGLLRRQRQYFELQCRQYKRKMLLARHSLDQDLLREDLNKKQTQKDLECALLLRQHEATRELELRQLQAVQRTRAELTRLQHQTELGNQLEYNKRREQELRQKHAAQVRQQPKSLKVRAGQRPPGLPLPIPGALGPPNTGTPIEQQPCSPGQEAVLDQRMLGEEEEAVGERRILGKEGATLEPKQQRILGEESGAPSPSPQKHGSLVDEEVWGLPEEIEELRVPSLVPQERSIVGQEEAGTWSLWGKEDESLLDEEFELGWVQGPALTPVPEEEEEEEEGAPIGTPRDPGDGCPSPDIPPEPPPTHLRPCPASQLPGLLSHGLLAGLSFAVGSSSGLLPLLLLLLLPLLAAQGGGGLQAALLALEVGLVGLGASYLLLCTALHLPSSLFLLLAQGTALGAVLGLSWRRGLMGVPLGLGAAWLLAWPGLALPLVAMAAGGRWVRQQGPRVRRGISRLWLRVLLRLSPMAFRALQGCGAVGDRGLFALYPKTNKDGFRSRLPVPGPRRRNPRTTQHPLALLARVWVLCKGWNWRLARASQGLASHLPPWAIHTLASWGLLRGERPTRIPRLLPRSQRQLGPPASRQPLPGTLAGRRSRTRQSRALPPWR

[3] = molecular target: Calcium/calmodulin-dependent protein kinase type II subunit alpha (Homo sapiens, UniProt Q9UQM7); details: at 10 µM
[4] = molecular target: T2, Atypical kinase COQ8B, mitochondrial (Homo sapiens) (UniProt Q96D53); test: Selectivity interaction (Ambit KINOMEscan and KiNATiv profiling in Jurkat cells) EUB0000090b ADCK4; assay type: cell-based; details: at 1 µM
T2 sequence (whole entry): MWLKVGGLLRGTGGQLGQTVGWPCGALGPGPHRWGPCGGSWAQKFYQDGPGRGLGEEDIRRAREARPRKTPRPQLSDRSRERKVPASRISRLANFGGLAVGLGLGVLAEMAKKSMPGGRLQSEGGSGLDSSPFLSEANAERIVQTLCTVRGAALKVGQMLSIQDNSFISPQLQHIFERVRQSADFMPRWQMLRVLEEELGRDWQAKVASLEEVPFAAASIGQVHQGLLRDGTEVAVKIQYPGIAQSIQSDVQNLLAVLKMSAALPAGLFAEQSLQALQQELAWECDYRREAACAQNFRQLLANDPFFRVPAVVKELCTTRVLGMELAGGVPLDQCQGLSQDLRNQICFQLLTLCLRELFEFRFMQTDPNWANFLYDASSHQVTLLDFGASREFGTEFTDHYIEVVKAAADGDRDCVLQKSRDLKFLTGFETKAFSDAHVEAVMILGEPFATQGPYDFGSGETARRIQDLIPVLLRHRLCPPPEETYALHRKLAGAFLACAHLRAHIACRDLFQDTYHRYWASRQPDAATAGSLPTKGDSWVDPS

[5] = molecular target: Mitogen-activated protein kinase 4 (Homo sapiens) (UniProt P31152); test: Selectivity interaction (KinomeScan (DiscoverX)) EUB0000655a MAPK4; details: at 10 µM
[6] = molecular target: Histone-lysine N-methyltransferase ASH1L (Homo sapiens) (UniProt Q9NR48); test: Selectivity interaction (Transferase panel (protein, RNA, and DNA methyltransferases. and EP300 (acetyltransferase))) EUB0000270b ASH1L
[7] = molecular target: Misshapen-like kinase 1 (Homo sapiens, UniProt Q8N4C8); test: Selectivity interaction (KinomeScan (DiscoverX)) EUB0000229b MINK1; details: at 10 µM
[8] = molecular target: Mitogen-activated protein kinase kinase kinase 11 (Homo sapiens) (UniProt Q16584); test: Selectivity interaction (KinomeScan (DiscoverX)) EUB0000229b MAP3K11; details: at 10 µM
Sequence of Mitogen-activated protein kinase kinase kinase 11 (Homo sapiens) (Q16584 whole entry, looked up): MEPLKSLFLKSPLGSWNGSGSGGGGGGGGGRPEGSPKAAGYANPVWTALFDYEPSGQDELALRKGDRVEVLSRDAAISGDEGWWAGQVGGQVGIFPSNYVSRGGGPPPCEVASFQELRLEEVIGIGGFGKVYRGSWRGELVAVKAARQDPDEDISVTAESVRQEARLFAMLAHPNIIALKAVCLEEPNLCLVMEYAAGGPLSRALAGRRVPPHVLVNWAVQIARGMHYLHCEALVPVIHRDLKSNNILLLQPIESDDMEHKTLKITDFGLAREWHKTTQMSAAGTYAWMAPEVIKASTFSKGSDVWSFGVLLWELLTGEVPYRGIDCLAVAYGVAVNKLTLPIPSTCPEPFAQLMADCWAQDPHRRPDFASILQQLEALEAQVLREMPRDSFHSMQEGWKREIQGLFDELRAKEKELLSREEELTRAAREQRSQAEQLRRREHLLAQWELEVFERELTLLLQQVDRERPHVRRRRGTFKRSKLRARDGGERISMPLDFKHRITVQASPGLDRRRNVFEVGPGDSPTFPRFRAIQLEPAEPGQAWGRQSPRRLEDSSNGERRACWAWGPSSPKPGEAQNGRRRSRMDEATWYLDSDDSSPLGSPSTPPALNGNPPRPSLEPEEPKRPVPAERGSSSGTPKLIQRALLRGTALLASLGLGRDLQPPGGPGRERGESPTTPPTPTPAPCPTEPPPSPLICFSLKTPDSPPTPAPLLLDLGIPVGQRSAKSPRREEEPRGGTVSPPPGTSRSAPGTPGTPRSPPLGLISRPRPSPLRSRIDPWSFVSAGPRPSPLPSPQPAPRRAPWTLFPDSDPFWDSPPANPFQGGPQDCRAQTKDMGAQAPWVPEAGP

Sequence of Cyclin-dependent kinase 3 (Homo sapiens) (Q00526 whole entry, looked up): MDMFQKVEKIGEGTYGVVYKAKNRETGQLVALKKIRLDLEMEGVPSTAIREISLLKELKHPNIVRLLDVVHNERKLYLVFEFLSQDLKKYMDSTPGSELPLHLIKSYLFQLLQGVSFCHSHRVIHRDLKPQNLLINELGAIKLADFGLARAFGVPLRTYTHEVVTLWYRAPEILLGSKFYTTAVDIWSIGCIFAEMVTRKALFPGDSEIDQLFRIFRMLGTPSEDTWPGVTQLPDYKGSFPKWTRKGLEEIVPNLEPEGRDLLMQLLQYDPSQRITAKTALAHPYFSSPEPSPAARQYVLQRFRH
Sequence of Misshapen-like kinase 1 (Q8N4C8 whole entry, looked up): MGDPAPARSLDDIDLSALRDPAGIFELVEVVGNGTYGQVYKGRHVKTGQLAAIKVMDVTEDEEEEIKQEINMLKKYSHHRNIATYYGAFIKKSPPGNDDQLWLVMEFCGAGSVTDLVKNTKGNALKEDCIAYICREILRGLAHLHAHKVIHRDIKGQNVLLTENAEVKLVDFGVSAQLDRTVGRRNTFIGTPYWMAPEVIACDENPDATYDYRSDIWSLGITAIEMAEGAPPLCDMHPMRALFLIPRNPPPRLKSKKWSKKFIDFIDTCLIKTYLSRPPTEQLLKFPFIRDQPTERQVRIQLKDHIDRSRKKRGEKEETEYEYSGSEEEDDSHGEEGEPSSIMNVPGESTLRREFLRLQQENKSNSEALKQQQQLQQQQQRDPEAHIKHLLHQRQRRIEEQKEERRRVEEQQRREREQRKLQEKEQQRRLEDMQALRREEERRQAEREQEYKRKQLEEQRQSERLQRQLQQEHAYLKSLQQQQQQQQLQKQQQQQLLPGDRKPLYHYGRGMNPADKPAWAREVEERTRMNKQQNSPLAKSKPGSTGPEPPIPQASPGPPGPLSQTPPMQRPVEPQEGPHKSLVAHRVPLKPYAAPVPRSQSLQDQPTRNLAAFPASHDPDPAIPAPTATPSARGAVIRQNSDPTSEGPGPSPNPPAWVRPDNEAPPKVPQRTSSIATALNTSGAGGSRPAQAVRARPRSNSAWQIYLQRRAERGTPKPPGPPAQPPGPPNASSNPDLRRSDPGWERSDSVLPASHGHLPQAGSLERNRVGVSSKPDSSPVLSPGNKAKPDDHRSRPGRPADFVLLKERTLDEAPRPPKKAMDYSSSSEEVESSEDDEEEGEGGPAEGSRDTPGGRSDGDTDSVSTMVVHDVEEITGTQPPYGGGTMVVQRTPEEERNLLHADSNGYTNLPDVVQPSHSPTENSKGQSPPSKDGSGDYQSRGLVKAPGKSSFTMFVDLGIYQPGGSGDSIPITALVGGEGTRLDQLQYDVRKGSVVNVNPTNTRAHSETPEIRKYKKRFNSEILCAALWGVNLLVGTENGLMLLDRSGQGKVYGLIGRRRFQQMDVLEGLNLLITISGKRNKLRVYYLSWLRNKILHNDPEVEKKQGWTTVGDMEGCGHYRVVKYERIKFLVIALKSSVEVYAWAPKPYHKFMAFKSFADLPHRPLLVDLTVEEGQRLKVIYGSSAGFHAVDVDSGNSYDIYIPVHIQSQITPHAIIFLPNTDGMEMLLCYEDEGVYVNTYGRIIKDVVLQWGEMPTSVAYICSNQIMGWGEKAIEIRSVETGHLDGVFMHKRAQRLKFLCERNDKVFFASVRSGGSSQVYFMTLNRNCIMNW
Sequence of Mitogen-activated protein kinase 4 (Homo sapiens) (P31152 whole entry): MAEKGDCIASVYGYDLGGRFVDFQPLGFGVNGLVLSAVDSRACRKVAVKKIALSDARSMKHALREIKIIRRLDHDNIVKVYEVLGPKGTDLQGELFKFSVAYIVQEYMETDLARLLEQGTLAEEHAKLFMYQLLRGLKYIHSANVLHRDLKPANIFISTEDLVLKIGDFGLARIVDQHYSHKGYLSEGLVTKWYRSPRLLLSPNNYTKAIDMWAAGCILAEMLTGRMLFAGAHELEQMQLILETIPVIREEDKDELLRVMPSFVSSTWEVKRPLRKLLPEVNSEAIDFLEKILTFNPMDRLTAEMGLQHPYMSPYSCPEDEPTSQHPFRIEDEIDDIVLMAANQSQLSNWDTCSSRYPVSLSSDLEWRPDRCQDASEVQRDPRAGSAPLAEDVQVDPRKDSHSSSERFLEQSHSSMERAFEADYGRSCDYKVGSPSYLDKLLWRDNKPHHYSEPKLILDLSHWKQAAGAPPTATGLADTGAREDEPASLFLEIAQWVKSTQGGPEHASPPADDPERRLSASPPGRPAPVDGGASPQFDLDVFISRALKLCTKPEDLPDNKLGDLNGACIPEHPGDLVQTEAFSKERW
Sequence of Calcium/calmodulin-dependent protein kinase type II subunit alpha (Q9UQM7 whole entry): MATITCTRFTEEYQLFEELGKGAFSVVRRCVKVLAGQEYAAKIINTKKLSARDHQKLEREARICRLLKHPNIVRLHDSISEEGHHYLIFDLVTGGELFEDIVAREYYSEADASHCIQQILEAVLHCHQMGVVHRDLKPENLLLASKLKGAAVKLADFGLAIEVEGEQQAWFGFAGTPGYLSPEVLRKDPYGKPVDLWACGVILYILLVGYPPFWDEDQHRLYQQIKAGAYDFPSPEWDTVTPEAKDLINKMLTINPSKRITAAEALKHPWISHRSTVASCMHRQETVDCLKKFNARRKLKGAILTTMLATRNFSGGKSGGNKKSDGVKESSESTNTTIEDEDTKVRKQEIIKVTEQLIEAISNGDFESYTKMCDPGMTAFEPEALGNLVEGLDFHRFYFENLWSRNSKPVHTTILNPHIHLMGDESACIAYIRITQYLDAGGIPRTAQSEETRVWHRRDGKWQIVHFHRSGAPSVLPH

SMILES: O=C(NOC[C@H](O)CO)c1ccc(F)c(F)c1Nc1ccc(I)cc1F
% of control [1]: 69%

% of inhibition [2]: -1%
SMILES: CN1Cc2nccc(-c3cn(C)nc3-c3ccc(F)cc3)c2C1=O

% of control [3]: 100%
SMILES: CCN(CC)CCCCNc1ncc2cc(-c3cc(OC)cc(OC)c3)c(NC(=O)NC(C)(C)C)nc2n1

SMILES: CN(C)C/C=C/C(=O)Nc1ccc(C(=O)N2CCCC(Nc3ncc(Cl)c(-c4c[nH]c5ccccc45)n3)C2)cc1 (centres undefined)
% of control [4]: 69%

SMILES: CN(C)CCOc1ccc(-c2nc(-c3ccncc3)c(-c3ccc4c(c3)CC/C4=N\O)[nH]2)cc1
% of control [5]: 100%

% activity ([6]; at 1 µM): > 90%
% activity ([6]; at 10 µM): > 80%
SMILES: Cc1cc(CN)cc(C)c1-c1ncn(C)c1-c1cncn1C

SMILES: COc1cc(N(C)c2ccnc3ccc(C(F)(F)F)cc23)cc(OC)c1OC
% binding [7]: 68%
% binding [8]: 92%
